Data published in patent US12286437B2, “Cardiac sarcomere inhibitors” (Cytokinetics, Inc., priority 2021, dated 2025).

What was measured:
[1] = system: bovine cardiac myofibrils; experiment: Myofibril assay (ATPase activity of skinned bovine cardiac myofibrils, PK/LDH-coupled); assay type: biochemical; details: inhibition of steady-state ATPase of bovine cardiac myofibrils; CaCl2 for 50% or 75% activation
Experimental: To evaluate the effect of compounds on the ATPase activity of full-length cardiac myosin in the context of the native sarcomere, skinned myofibril assays were performed. Bovine cardiac myofibrils were obtained by homogenizing bovine cardiac left ventricular tissue in the presence of a detergent such as triton X-100. Such treatment removes membranes and a majority of the soluble cytoplasmic proteins but leaves intact the cardiac sarcomeric acto-myosin apparatus. Myofibril preparations retain the ability to hydrolyze ATP in a Ca^2+ regulated manner. ATPase activities of such myofibril preparations in the presence and absence of compounds were assayed at Ca^2+ concentrations activating to a defined fraction of the maximal rate (i.e., […], 75%). Small molecule agents were assessed for their ability to inhibit the steady-state ATPase activity of bovine cardiac myofibrils using pyruvate kinase and lactate dehydrogenase (PK/LDH)-coupled enzyme system. This assay regenerates myosin-produced ADP into ATP by oxidizing NADH, producing an absorbance change at 340 nm. Prior to testing small molecule agents, the bovine cardiac myofibrils were assessed for their calcium responsiveness and the calcium concentration that achieves either a 50% (pCa50) or 75% (pCa75) activation of the myofibril system was chosen as the final condition for assessing the inhibitory activity of the small molecule agents. All enzymatic activity was measured in a buffered solution containing 12 mM PIPES (piperazine-N,N′-bis(2-ethanesulfonic acid), 2 mM magnesium chloride at pH 6.8 (PM 12 buffer). Final assay conditions were 1 mg/mL of bovine cardiac myofibrils, 4 U/mL pyruvate kinase, 6 U/mL lactate dehydrogenase, 50 μM ATP, 0.1 mg/mL BSA (bovine serum albumin), 10 ppm antifoam, 1 mM DTT, 0.5 mM NADH, 1.5 mM PEP, 0.6 mM EGTA, and an amount of CaCl2 sufficient to achieve either 50% or 75% activation of the myofibril ATPase activity. Results for compounds tested are provided in Table A. Compounds tested were prepared in accordance with the synthetic procedures described herein.

[2] = Dog cassette dosing pharmacokinetics; assay type: in vivo, beagle dogs; details: male, beagle, plasma, IV; for Vd: read-out: Vss; for half-life: read-out: t½ (converted)
Experimental: Non-naïve male beagle dogs (8 months to 3 years of age, body weight 8-14 kg) sourced from Jiangsu Johnsen Bioresource CO. and/or Beijing Rixinkeji CO., LTD and/or Beijing Marshall Biotechnology CO., LTD were used in this study. All animals for IV administration had free access to food and water. The IV dose solution was prepared in 10% DMA/50% PG/40% HPβCD solution (40% w/v aqueous HPβCD) at a concentration of 0.2 mg/mL. Concentrations of IV dose was measured at the end of the study. PK parameters were calculated using the nominal dose values if the measured values were within 20% of the nominal values. Blood samples were collected by venipuncture of peripheral veins except the dosing vein at pre-dose, 5 15, 30 min, 1, 2, 4, 6, 8 and 24 h post-dose. Blood samples were centrifuged and resultant plasma was frozen for bioanalysis. Plasma samples were stored at −80° C. before analysis. Plasma samples were analyzed for compound concentrations using the LC/MS/MS method. Briefly, a 50 μL aliquot of each plasma sample was mixed with 100 μL of acetonitrile that contained an internal standard. The mixture was vortexed and centrifuged. Ten (10) μL of the resulting solution was injected onto a reverse-phase C18 column and the resultant peaks detected on a LC/MS/MS equipped with a turbo ionspray ionization source. Sample concentrations below the limit of quantification (BLQ) were treated as zero for PK calculations. PK parameters were estimated from individual animals using noncompartmental analysis of the concentration-time data (Phoenix WinNonLin software, version 64; Pharsight, Mountain View, CA). The elimination rate constant (k) was calculated as the absolute value of the slope of the linear regression of logarithm (log) of the concentration versus time for the last three data points of the concentration-time profiles. Apparent elimination half-life (t1/2) values were calculated as ln(2)/k. Area under the concentration-time curve (AUC) values were estimated using linear trapezoidal method. AUCt values were calculated from the dosing time to the last measurable concentration. AUC∞ values were calculated as the sum of the corresponding AUCt and the ratio of the last detectable concentration divided by k. Plasma clearance (CL) was calculated from Dose/AUC∞. Mean resident time extrapolated to infinity (MRT∞) was estimated by moment analysis. Vss was calculated from MRT∞×CL. Maximum concentration (Cmax) and time to reach Cmax (tmax) were recorded as observed. As this was a cross-over study, bioavailability was calculated dAUC∞,po/dAUC∞,iv×100% where dAUC was the dose normalized AUC value from the same animal given IV and PO dose. Data for compounds tested are provided in Table G. Compounds tested were prepared in accordance with the synthetic procedures described herein.

[3] = Monkey cassette dosing pharmacokinetics; assay type: in vivo; details: IV; for clearance / Vd: male, plasma; for Vd: read-out: Vss
[4] = Rat single dose pharmacokinetics; assay type: in vivo, Sprague Dawley rats; details: male, Sprague Dawley, plasma, IV; for Vd: read-out: Vss
Experimental: Male Sprague Dawley rats were obtained from Zhejiang Vital River Laboratory Animal Technology Co., Ltd. The animals in IV group had free access to water and food. The animals in PO group were fasted overnight before dosing and provided with food 2 hours post dosing. The IV dose solution was prepared in 10% DMA/50% PG/40% HPβCD solution (40% w/v aqueous HPβCD) at a concentration of 1 mg/mL. The oral dosing suspension was prepared by suspending Test Article in 0.5% HPMC/0.1% Tween 80 in water at a concentration 0.2 mg/mL. Concentrations of IV and PO doses were measured at the end of the study. Pharmacokinetic parameters were calculated using the nominal dose values if the measured values were within 20% of the nominal values. Three rats were dosed IV via a bolus injection via caudal vein. Three rats per dose group were dosed by oral gavage. Blood samples were collected from the jugular vein cannula at predose, 5 (IV only), 15, 30 minutes, and 1, 2, 4, 6, and 24 hours post-dose. Blood volumes were replaced with an equal amount of sterile 0.9% saline. Blood samples were centrifuged and the collected plasma was stored at −80° C. for subsequent analysis. Plasma samples were analyzed for Test Article concentrations using a LC/MS/MS method. Briefly, a 50 μL aliquot of each plasma sample was mixed with 100 μL of acetonitrile that contained an internal standard. The mixture was vortexed and centrifuged. Ten (10) […] of the resulting solution was injected onto a reverse-phase C18 column and the resultant peaks detected on a LC/MS/MS equipped with a turbo ionspray ionization source. Sample concentrations below the limit of quantification (BLQ) were treated as zero for pharmacokinetic calculations. Pharmacokinetic parameters were estimated from individual animals using noncompartmental analysis of the concentration-time data (Phoenix WinNonLin software, version 64; Pharsight, Mountain View, CA). The elimination rate constant (k) was calculated as the absolute value of the slope of the linear regression of logarithm (log) of the concentration versus time for the last three data points of the concentration-time profiles. Apparent elimination half-life (t1/2) values were calculated as ln(2)/k. Area under the concentration-time curve (AUC) values were estimated using linear trapezoidal method. AUCt values were calculated from the dosing time to the last measurable concentration. AUC∞ values were calculated as the sum of the corresponding AUCt and the ratio of the last detectable concentration divided by k (AUCt-∞). Plasma clearance (CL) was calculated from Dose/AUC∞. Mean resident time (MRT) was estimated by moment analysis. Volume of distribution at steady state (Vss) was calculated from MRT∞×CL. Maximum concentration (Cmax) and time to reach Cmax (tmax) were recorded as observed. Bioavailability was calculated from the ratio of dose normalized AUC∞,po of individual rats/mean dAUC∞,iv×100% where dAUC was the dose normalized AUC value. Compounds tested were prepared in accordance with the synthetic procedures described herein.

Row | Compound | CDMF IC15 [1] | clearance [2] | Vd [2] | half-life [2] | t l/2 [3] | clearance [3] | Vd [3] | clearance [4] | half-life [4] | Vd [4]
1 | C[C@H]1CC[C@H](N2CC(=O)N(Cc3ccc(Cl)c(F)c3)C3(CN(C(N)=O)C3)C2=O)CC1 [Compound 3, 5-(4-chloro-3-fluorobenzyl)-8-((1r,4r)-4-methylcyclohexyl)-6,9-dioxo-2,5,8-triazaspiro[3.5]nonane-2-carboxamide] | 700 nM | 7.16 mL/min/kg | 6.9 L/kg | 13.1 h |  |  |  | 78.5 mL/min/kg | 2.6 h | 14.7 L/kg
2 | CC[C@H](C)N1CC(=O)N(Cc2ccc(F)c(C)c2)C2(CN(c3cccnn3)C2)C1=O [Compound 16, (S)-8-(sec-butyl)-5-(4-fluoro-3-methylbenzyl)-2-(pyridazin-3-yl)-2,5,8-triazaspiro[3.5]nonane-6,9-dione] | 900 nM | 33 mL/min/kg | 7.08 L/kg | 3.07 h |  |  |  |  |  | 
3 | CC(C)N1CC(=O)N(Cc2ccc(F)c(Cl)c2)C2(CN(c3cccnn3)C2)C1=O [Compound 9, 5-(3-chloro-4-fluorobenzyl)-8-isopropyl-2-(pyridazin-3-yl)-2,5,8-triazaspiro[3.5]nonane-6,9-dione] | 1600 nM | 13.9 mL/min/kg | 3.08 L/kg | 3.65 h | 1.59 h | 15.2 mL/min/kg | 1.88 L/kg | 27.4 mL/min/kg | 0.925 h | 1.64 L/kg
4 | C[C@H]1CC[C@H](N2CC(=O)N(Cc3ccc(Cl)cc3)C3(CN(c4cccnn4)C3)C2=O)CC1 [Compound 10, 5-(4-chlorobenzyl)-8-((1r,4r)-4-methylcyclohexyl)-2-(pyridazin-3-yl)-2,5,8-triazaspiro[3.5]nonane-6,9-dione] | 300 nM | 36.3 mL/min/kg | 18.6 L/kg | 9.38 h |  |  |  |  |  | 
5 | CC[C@H]1CC[C@H](N2CC(=O)N(Cc3ccc(F)c(F)c3)C3(CN(C(N)=O)C3)C2=O)CC1 [Compound 11, 5-(3,4-difluorobenzyl)-8-((1r,4r)-4-ethylcyclohexyl)-6,9-dioxo-2,5,8-triazaspiro[3.5]nonane-2-carboxamide] | 700 nM | 6.3 mL/min/kg | 4.42 L/kg | 9.66 h | 3.03 h | 33.1 mL/min/kg | 7.26 L/kg |  |  | 

Results, then the compound that gave them:

Row | CDMF IC15 [1] | clearance [2] | Vd [2] | half-life [2] | t l/2 [3] | clearance [3] | Vd [3] | clearance [4] | half-life [4] | Vd [4] | Compound
6 | 800 nM | 3.65 mL/min/kg | 3.44 L/kg | 12.5 h |  |  |  |  |  |  | CC[C@H]1CC[C@H](N2CC(=O)N(Cc3ccc(Cl)cc3)C3(CN(C(N)=O)C3)C2=O)CC1 [Compound 1, 5-(4-chlorobenzyl)-8-((1r,4r)-4-ethylcyclohexyl)-6,9-dioxo-2,5,8-triazaspiro[3.5]nonane-2-carboxamide]
7 | 1300 nM | 36.5 mL/min/kg | 6.44 L/kg | 2.43 h | 1.1 h | 17.1 mL/min/kg | 1.48 L/kg |  |  |  | CC[C@H](C)N1CC(=O)N(Cc2ccc(F)c(F)c2)C2(CN(c3cccnn3)C2)C1=O [Compound 14, (S)-8-(sec-butyl)-5-(3,4-difluorobenzyl)-2-(pyridazin-3-yl)-2,5,8-triazaspiro[3.5]nonane-6,9-dione]
8 | 1400 nM | 24.2 mL/min/kg | 2.84 L/kg | 1.49 h |  |  |  |  |  |  | CCC(CC)N1CC(=O)N(Cc2ccc(F)c(F)c2)C2(CN(c3cccnn3)C2)C1=O [Compound 15, 5-(3,4-difluorobenzyl)-8-(pentan-3-yl)-2-(pyridazin-3-yl)-2,5,8-triazaspiro[3.5]nonane-6,9-dione]
9 | 400 nM | 34.4 mL/min/kg | 17.8 L/kg | 7.39 h |  |  |  |  |  |  | C[C@H]1CC[C@H](N2CC(=O)N(Cc3ccc(F)c(F)c3)C3(CN(c4cccnn4)C3)C2=O)CC1 [Compound 12, 5-(3,4-difluorobenzyl)-8-((1r,4r)-4-methylcyclohexyl)-2-(pyridazin-3-yl)-2,5,8-triazaspiro[3.5]nonane-6,9-dione]
10 | 900 nM | 41.9 mL/min/kg | 8.25 L/kg | 3.02 h |  |  |  |  |  |  | C[C@H]1CC[C@H](N2CC(=O)N(Cc3ccc(F)cc3)C3(CN(c4cccnn4)C3)C2=O)CC1 [Compound 17, 5-(4-fluorobenzyl)-8-((1r,4r)-4-methylcyclohexyl)-2-(pyridazin-3-yl)-2,5,8-triazaspiro[3.5]nonane-6,9-dione]
11 | 2100 nM | 4.06 mL/min/kg | 1.99 L/kg | 7.34 h |  |  |  |  |  |  | CC[C@H]1CC[C@H](N2CC(=O)N(Cc3ccc(F)cc3)C3(CN(C(N)=O)C3)C2=O)CC1 [Compound 2, 8-((1r,4r)-4-ethylcyclohexyl)-5-(4-fluorobenzyl)-6,9-dioxo-2,5,8-triazaspiro[3.5]nonane-2-carboxamide]
